ChEMBL document CHEMBL4725253, “Discovery of quinoline-based irreversible BTK inhibitors” (Bioorg Med Chem Lett, 2020)
pEC50, pIC50: −log10 of the molar value.

Key:
[1] = Inhibition of anti-human alphaIgM-stimulated MIP1beta production in human Ramos B cells preincubated for 1 hr followed by anti-human IgM stimulation for 6 hrs by ELISA; assay type: functional, cell-based
[2] = biological target: T1, Tyrosine-protein kinase BTK (Homo sapiens, UniProt Q06187); experiment: Inhibition of human recombinant full length N-terminal His6-tagged BTK expressed in baculovirus infected Sf9 cells using fluorescein labeled Blk/Lyntide substrate preincubated with enzyme for 60 mins followed by further incubation with substrate and ATP for 120 mins by IMAP assay
T1 sequence (Q06187 whole entry): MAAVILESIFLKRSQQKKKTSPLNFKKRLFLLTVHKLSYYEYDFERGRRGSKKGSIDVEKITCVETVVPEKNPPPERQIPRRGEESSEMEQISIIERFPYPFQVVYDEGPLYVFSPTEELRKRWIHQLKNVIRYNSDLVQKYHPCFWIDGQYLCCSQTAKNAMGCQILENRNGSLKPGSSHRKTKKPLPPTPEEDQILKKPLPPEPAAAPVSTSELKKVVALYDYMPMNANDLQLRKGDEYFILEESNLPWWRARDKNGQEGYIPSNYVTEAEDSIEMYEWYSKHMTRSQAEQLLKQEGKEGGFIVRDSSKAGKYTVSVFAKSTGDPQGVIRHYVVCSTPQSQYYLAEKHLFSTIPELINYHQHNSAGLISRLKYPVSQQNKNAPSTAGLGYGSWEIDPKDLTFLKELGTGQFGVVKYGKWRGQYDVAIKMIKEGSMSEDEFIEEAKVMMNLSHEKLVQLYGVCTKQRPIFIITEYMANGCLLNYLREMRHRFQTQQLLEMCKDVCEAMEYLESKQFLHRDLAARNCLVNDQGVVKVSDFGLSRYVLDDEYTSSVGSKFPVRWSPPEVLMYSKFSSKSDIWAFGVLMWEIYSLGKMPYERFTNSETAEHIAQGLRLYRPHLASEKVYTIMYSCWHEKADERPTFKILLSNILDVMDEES

[3] = biological target: Epidermal growth factor receptor (Homo sapiens, UniProt P00533); experiment: Inhibition of EGFR (unknown origin) expressed in baculovirus system using fluorescein labeled PDGFR-tide substrate peptide preincubated for 60 mins followed by ATP addition and measured after 60 mins by IMAP assay
Chain of Epidermal growth factor receptor (P00533 whole entry): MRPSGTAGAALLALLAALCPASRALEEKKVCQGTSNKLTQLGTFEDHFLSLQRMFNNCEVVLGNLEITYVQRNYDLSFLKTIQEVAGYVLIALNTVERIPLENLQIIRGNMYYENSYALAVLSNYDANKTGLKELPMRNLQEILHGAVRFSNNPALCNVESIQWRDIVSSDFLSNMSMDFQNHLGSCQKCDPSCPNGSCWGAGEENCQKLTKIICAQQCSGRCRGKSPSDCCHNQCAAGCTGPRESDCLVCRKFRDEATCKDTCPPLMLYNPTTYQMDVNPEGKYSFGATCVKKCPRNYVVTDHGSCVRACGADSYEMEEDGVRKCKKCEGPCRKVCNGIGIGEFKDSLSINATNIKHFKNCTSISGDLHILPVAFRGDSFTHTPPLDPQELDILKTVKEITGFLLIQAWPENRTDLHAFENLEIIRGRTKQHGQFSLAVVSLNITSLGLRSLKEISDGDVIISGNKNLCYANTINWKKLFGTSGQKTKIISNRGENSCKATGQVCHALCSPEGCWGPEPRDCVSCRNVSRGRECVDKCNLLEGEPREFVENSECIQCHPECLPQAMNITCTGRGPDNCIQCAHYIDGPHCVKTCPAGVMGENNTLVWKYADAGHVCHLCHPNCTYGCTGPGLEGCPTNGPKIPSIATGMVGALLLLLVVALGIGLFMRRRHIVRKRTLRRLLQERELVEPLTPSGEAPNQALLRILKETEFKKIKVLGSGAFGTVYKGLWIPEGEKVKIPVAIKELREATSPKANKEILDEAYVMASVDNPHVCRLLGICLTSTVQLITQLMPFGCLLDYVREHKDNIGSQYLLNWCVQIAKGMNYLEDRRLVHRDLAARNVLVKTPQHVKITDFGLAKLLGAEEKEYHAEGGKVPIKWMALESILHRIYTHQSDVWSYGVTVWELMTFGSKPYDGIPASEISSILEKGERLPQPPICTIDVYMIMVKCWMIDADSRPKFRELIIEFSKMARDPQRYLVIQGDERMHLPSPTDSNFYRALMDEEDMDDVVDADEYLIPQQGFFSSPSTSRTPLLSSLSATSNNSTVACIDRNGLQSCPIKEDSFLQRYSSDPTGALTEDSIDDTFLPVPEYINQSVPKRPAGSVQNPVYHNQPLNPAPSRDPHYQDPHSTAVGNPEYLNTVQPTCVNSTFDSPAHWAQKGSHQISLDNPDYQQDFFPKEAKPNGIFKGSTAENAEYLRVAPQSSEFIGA

[4] = biological target: T1, Tyrosine-protein kinase BTK; experiment: Covalent inhibition of His-tagged human full length recombinant BTK expressed in baculovirus expression system incubated for 5 to 120 mins by Lanthascreen TR-FRET assay; details: time min 5-120, TDE = time-dependent effect
[5] = Inhibition of goat anti-human IgM F(ab')-stimulated CD69 cell surface expression in human PBMC preincubated for 2 hrs followed by anti-human IgM stimulation for 18 hrs by flow cytometric analysis; assay type: functional, tissue-based
[6] = test system: Blood; experiment: Inhibition of mouse anti-human anti-IgD-stimulated CD69 cell surface expression in human whole blood preincubated for 2 hrs followed by anti-human anti-IgD stimulation for 18 hrs by flow cytometric analysis; assay type: functional, tissue-based
[7] = species on record: Homo sapiens; experiment: Selectivity index, ratio of IC50 for EGFR (unknown origin) expressed in baculovirus system to IC50 for human recombinant full length N-terminal His6-tagged BTK expressed in baculovirus infected Sf9 cells
[8] = In vivo inhibition of CD69 expression in po dosed mouse; assay type: functional
[9] = biological target: Tyrosine-protein kinase Blk (Homo sapiens, UniProt P51451); experiment: Inhibition of recombinant full length human His-tagged BLK cytoplasmic domain expressed in baculovirus expression system using tyrosine-1 peptide as substrate preincubated for 1 hr in presence of ATP by Z'-LYTE assay
Chain of Tyrosine-protein kinase Blk (P51451 whole entry, the tested form may be a part): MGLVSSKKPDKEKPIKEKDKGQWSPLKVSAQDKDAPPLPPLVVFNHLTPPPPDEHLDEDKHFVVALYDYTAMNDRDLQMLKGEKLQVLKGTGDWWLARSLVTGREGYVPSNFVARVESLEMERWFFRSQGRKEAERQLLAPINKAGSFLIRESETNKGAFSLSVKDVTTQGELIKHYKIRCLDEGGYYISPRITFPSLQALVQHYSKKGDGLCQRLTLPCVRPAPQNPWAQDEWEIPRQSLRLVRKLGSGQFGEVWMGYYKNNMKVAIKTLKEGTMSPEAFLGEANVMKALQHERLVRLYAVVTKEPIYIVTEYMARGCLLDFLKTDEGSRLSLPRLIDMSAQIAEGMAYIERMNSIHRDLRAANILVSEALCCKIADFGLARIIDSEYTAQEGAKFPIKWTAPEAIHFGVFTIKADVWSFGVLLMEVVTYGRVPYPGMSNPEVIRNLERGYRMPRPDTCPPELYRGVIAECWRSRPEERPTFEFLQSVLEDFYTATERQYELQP

[10] = Solubility of compound by turbidimetric assay; assay type: physicochemical

Structure (SMILES)	pEC50 [1]	pIC50 [2]	pIC50 [3]	further results
O=C(C#CCCN1CCOCC1)Nc1ccc2nccc(Oc3ccc(C(=O)Nc4ccccn4)cc3)c2c1	7.60	9.10	7.09	
CN(C)C/C=C/C(=O)Nc1ccc2nccc(Oc3ccc(C(=O)Nc4ccccn4)cc3)c2c1	7.05	8.14	6.56	
CC#CC(=O)Nc1cc2c(Oc3ccc(C(=O)Nc4ccccn4)cc3)ccnc2cc1OC1CCOCC1	6.82	8.42	< 6.00	
CC#CC(=O)Nc1cc2c(Oc3ccc(C(=O)Nc4ccccn4)cc3)ccnc2cc1OC	7.54	8.82	< 6.00	pEC50 [5]: 8.01; pEC50 [6]: 7.18
C=CC(=O)Nc1ccc2nccc(Oc3ccc(C(=O)Nc4ccccn4)cc3)c2c1	6.95	8.46	6.80	
CC#CC(=O)Nc1cc2c(Oc3ccc(C(=O)Nc4ccccn4)cc3)ccnc2cc1OCCCN1CCN(C)CC1	8.41	9.00	6.63	pEC50 [5]: 8.68; pEC50 [6]: 7.46
CC#CC(=O)N1CCC[C@H]1c1nc(-c2ccc(C(=O)Nc3ccccn3)cc2)c2c(N)nccn12 [ACALABRUTINIB]				ED50 [8]: 1.3 mg/kg; pIC50 [9]: < 6.00
CC#CC(=O)Nc1ccc2nccc(Oc3ccc(C(=O)Nc4ccccn4)cc3)c2c1	6.82	8.33	< 6.00	

More lines, main results first:

pEC50 [1]	pIC50 [2]	pIC50 [3]	Structure (SMILES)	further results
7.92	9.02	7.92	COCC#CC(=O)Nc1cc2c(Oc3ccc(C(=O)Nc4ccccn4)cc3)ccnc2cc1OC	
		8.42	C=CC(=O)Nc1ccc2ncnc(Nc3ccc(C(=O)Nc4ccccn4)cc3)c2c1	pEC50 [2]: 7.74
		7.96	C=CC(=O)Nc1ccc2ncnc(Oc3ccc(C(=O)Nc4ccccn4)cc3)c2c1	pEC50 [2]: 8.14; inhibition [4]: Tde
7.74	8.60	7.26	CCN1CCN(CC#CC(=O)Nc2ccc3nccc(Oc4ccc(C(=O)Nc5ccccn5)cc4)c3c2)CC1	Ratio IC50 [7]: 22
8.68	9.33	7.62	COc1cc2nccc(Oc3ccc(C(=O)Nc4ccccn4)cc3)c2cc1NC(=O)C#CCN1CCOCC1	pEC50 [5]: 8.82; pEC50 [6]: 7.92
7.92	9.59	7.89	O=C(C#CCN1CCOCC1)Nc1ccc2nccc(Oc3ccc(C(=O)Nc4ccccn4)cc3)c2c1	
8.15	9.82	7.80	COCC#CC(=O)Nc1ccc2nccc(Oc3ccc(C(=O)Nc4ccccn4)cc3)c2c1	
7.55	9.48	8.20	O=C(C#CCO)Nc1ccc2nccc(Oc3ccc(C(=O)Nc4ccccn4)cc3)c2c1	Ratio IC50 [7]: 19; solubility kinetic [10]: < 1 µM
